Values quoted from earlier work as cited in patent US12052992B2, “Insecticidal composition” (CLARKE MOSQUITO CONTROL PRODUCTS, INC., priority 2017, dated 2024).

Details: comparison value for water

O [water]
evaporation rate λ: 62.40 μm^2 s^−1° C.^−1
